Experimental data: patent publication US20260324636A1, “COMPOSITION FOR PROVIDING PLANT WITH STRESS RESISTANCE” (KIRIN HOLDINGS KABUSHIKI KAISHA, priority 2022, published 2026)

Tests used:
Arabidopsis thaliana = assay: High-temperature stress resistance in pot culture (fresh weight of aboveground part), Example 2; type: in vivo, Arabidopsis thaliana (Col-0); details: 0.5 mM in tap water, 37° C. for 5 days
Protocol: The materials as used in Example 1 were used.
Jiffy-7 (42 mm diameter, Sakata Seed Corporation) was used as culture soil for pot culture. On Jiffy-7 prepared on the Disposable Tray DT-3 (AS ONE CORPORATION), a grain of Arabidopsis thaliana seeds was seeded and the plant was allowed to grow in an artificial climate chamber (Nippon Medical & Chemical Instruments Co., Ltd.) maintained at a temperature of 22° C. for a daily cycle of 16 hours light and 8 hours darkness.
On the third week after seeding, tap water (200 ml) containing 0.5 mM N-acetylglutamic acid was poured on the Disposable Tray. On the fourth week after seeding, the tray was transferred to an artificial climate chamber maintained at a temperature of 37° C. and subjected to the high-temperature treatment. When the tray was dried during the high-temperature treatment, tap water containing 0.5 mM N-acetylglutamic acid was added. The tray was removed from the artificial climate chamber 5 days after the initiation of the high-temperature treatment, and the weight of the aboveground part was measured.

H1HSP17.6C = H1HSP17.6C gene expression by real-time PCR, Example 7; type: in vivo, hop; details: 1 mM in medium, 20° C. for 2 hours, leaves; read-out: H1HSP17.6C expression level, increase vs control
From the text: In order to design primers for the target genes necessary for gene expression analysis by real-time PCR, homologs of Arabidopsis thaliana high-temperature-responsive genes in hop were searched for. The amino acid sequences of Arabidopsis thaliana HSFA2 (AGI code: AT2G26150) and HSP17.6C (AGI code: AT1G53540) were obtained from TAIR (https://www.arabidopsis.org/), and the nucleotide sequences of the gene homologs were obtained using Hopbase (https://hopbase.cgrb.oregonstate.edu/). […] As the reference gene, the nucleotide sequence of the homolog of Arabidopsis thaliana EF1α (AGI code: AT1G18070) was obtained. The hop homolog genes were designated as H1HSFA2, H1HSP17.6C, and HIEF1α, respectively.
The materials as used in Example 4 were used.
The methods as employed in Example 4 were employed.
The leaves in the first and the second nodes from the apical buds of the tissue-cultured seedlings were sampled 1.5 months after the initiation of subculture and inoculated into a liquid medium consisting of a ½ Murashige and Skoog Plant Salt Mixture and 2 (w/v) % glucose. Specifically, a liquid medium was dispensed at 5 ml/well to a 6-well microplate (IWAKI), and 5 hop leaves were mounted thereon. […]
Thereafter, the relative expression level of the target gene upon N-acetylglutamic acid treatment was calculated by the ΔΔCt method.

HAC1 = HAC1 gene expression by real-time PCR, Example 15; type: in vivo; details: Arabidopsis thaliana; 0.1 mM in medium, 2 hours after application, 22° C.; read-out: HAC1 expression level, increase vs group not subjected to the treatment
Protocol: The materials as used in Example 14 were used.
A liquid medium containing a ½ Murashige and Skoog Plant Salt Mixture (Nacalai) and 1 (w/v) % sucrose (FUJIFILM Wako) was used as a growth medium.
Arabidopsis thaliana seeds were sterilized with the use of a Kitchen Haiter® liquid (Kao Corporation) diluted to one-half concentration with distilled water for 3 minutes, washed 3 times with sterile distilled water, and then incubated at 4° C. overnight. The growth medium was dispensed at 1 ml/well on a 12-well microplate (IWAKI), 5 grains of the seeds were inoculated in each well, and the plate was transferred to the incubator (TOMY) to initiate growing. The incubator was maintained at a temperature of 22° C. for a daily cycle of 16 hours light and 8 hours darkness.
N-acetylglutamic acid was applied to Arabidopsis thaliana 7 days after inoculation to the final concentration of 0.1 mM in the medium, followed by incubation for 2 hours or 6 hours. The incubator was maintained at a temperature of 22° C. for a daily cycle of 16 hours light and 8 hours darkness. After incubation, the samples were frozen with liquid nitrogen, and RNA was extracted using the RNeasy Plant Mini Kit […]. […]
Thereafter, the relative expression levels of the target genes upon N-acetylglutamic acid treatment were calculated by the ΔΔCt method using the Cp values obtained by real-time PCR.

CC(=O)N[C@@H](CCC(=O)O)C(=O)O [N-acetylglutamic acid]
fresh weight of the aboveground part, increase relative to the control group (Arabidopsis thaliana): 1.3 times | fold induction at 1000 µM (H1HSP17.6C): 1.8 | fold induction at 100 µM (HAC1): 1.2
